Data: ChEMBL document CHEMBL4308841, “Synthesis, in vitro antiproliferative activity, and kinase inhibitory effects of pyrazole-containing diarylureas and diarylamides” (Eur J Med Chem, 2018)

Tests used:
HT-29 = test: Growth inhibition of human HT-29 cells incubated for 48 hrs by sulforhodamine B assay; type: functional, cell-based; details: HT-29, 48 h
MDA-MB-435 [1] = test: Growth inhibition of human MDA-MB-435 cells assessed as cell growth at 0.01 uM incubated for 48 hrs by sulforhodamine B assay relative to control; type: functional; details: MDA-MB-435, 48 h, read-out: Activity
UACC-257 = test: Growth inhibition of human UACC257 cells assessed as cell growth at 1 uM incubated for 48 hrs by sulforhodamine B assay relative to control; type: functional; details: UACC-257, 48 h, read-out: Activity
MDA-MB-435 [2] = test: Growth inhibition of human MDA-MB-435 cells assessed as cell growth at 1 uM incubated for 48 hrs by sulforhodamine B assay relative to control; type: functional; details: MDA-MB-435, 48 h, read-out: Activity
IGROV-1 = test: Growth inhibition of human IGROV1 cells assessed as cell growth at 1 uM incubated for 48 hrs by sulforhodamine B assay relative to control; type: functional; details: IGROV-1, 48 h, read-out: Activity
T47D = test: Growth inhibition of human T47D cells assessed as cell growth at 0.01 uM incubated for 48 hrs by sulforhodamine B assay relative to control; type: functional; details: read-out: Activity
NCI-H460 = test: Growth inhibition of human NCI-H460 cells incubated for 48 hrs by sulforhodamine B assay; type: functional, cell-based; details: NCI-H460, 48 h
SNB-19 = test: Growth inhibition of human SNB19 cells assessed as cell growth at 0.1 uM incubated for 48 hrs by sulforhodamine B assay relative to control; type: functional; details: SNB-19, 48 h, read-out: Activity
HOP-92 = test: Growth inhibition of human HOP92 cells assessed as cell growth at 10 uM incubated for 48 hrs by sulforhodamine B assay relative to control; type: functional; details: HOP-92, 48 h, read-out: Activity
[3] = read-out: LC50 (the source's name)
[4] = read-out: pLC50 (the source's name) (converted)

SMILES | GI50 (HT-29; read-out: GI50) [µM] | CC50 (HT-29; [3]) [µM] | TGI (HT-29; read-out: TGI) [µM] | GI50 (HT-29; read-out: pGI50 (converted)) [µM] | CC50 (HT-29; [4]) [µM] | TGI (HT-29; read-out: pTGI (converted)) [µM] | growth at 0.01 µM (MDA-MB-435 [1]) [%] | growth at 1 µM (UACC-257) [%] | growth at 1 µM (MDA-MB-435 [2]) [%] | growth at 1 µM (IGROV-1) [%] | growth at 0.01 µM (T47D) [%] | GI50 (NCI-H460; read-out: GI50) [µM] | CC50 (NCI-H460; [3]) [µM] | TGI (NCI-H460; read-out: TGI) [µM] | GI50 (NCI-H460; read-out: pGI50 (converted)) [µM] | CC50 (NCI-H460; [4]) [µM] | TGI (NCI-H460; read-out: pTGI (converted)) [µM] | growth at 0.1 µM (SNB-19) [%] | growth at 10 µM (HOP-92) [%]
O=C(Nc1cccc(-n2cc(-c3ccncc3)c(-c3cc(O)cc(Cl)c3)n2)c1)Nc1ccc(Cl)c(C(F)(F)F)c1 | 2.12 | 95.9 | 45.7 | 2.14 | 10 | 4.57 | 97 | 58 | 57 | 113 | 91 | 2.59 | 85.8 | 73.7 | 2.57 | 87.1 | 7.41 | 95 | –
O=C(Nc1cccc(-n2cc(-c3ccncc3)c(-c3cc(O)cc(Cl)c3)n2)c1)Nc1ccc(Cl)c(Cl)c1 | 1.92 | 7.9 | 39 | 1.91 | 7.94 | 3.89 | 96 | 92 | 79 | 95 | 106 | 2.18 | > 100 | 61.4 | 2.19 | > 100 | 6.17 | 95 | -30.5
COc1cc(Cl)cc(-c2nn(-c3cccc(NC(=O)Nc4ccc(Cl)c(Cl)c4)c3)cc2-c2ccncc2)c1 | – | > 100 | – | 2.4 | > 100 | 9.12 | 93 | 80 | 85 | 102 | 94 | 2.27 | > 100 | 13.9 | 2.29 | > 100 | 13.8 | 90 | –
COc1cc(Cl)cc(-c2nn(-c3cccc(NC(=O)Nc4cccc(C(F)(F)F)c4)c3)cc2-c2ccncc2)c1 | 1.51 | 25.1 | 52.4 | 1.51 | 26.3 | 6.31 | 100 | 78 | 85 | 85 | 97 | 0.84 | > 100 | 45.8 | – | > 100 | – | 96 | -27.3
COc1cc(Cl)cc(-c2nn(-c3cccc(NC(=O)c4cccc(C(F)(F)F)c4)c3)cc2-c2ccncc2)c1 | 3.37 | > 100 | > 100 | 3.39 | > 100 | > 100 | 98 | 92 | 93 | 94 | 99 | 5.17 | > 100 | > 100 | 5.13 | > 100 | > 100 | 97 | –
O=C(Nc1cccc(-n2cc(-c3ccncc3)c(-c3cc(O)cc(Cl)c3)n2)c1)c1ccc(N2CCOCC2)c(C(F)(F)F)c1 | 3.03 | > 100 | 11.3 | 3.02 | > 100 | 11.2 | 96 | 54 | 54 | 91 | 97 | 0.797 | > 100 | 34.8 | 0.794 | > 100 | 3.55 | 105 | –
COc1cc(Cl)cc(-c2nn(-c3cccc(NC(=O)c4cc(C(F)(F)F)cc(C(F)(F)F)c4)c3)cc2-c2ccncc2)c1 | – | – | – | – | – | – | – | – | – | – | – | – | – | – | – | – | – | – | 46.8
COc1cc(Cl)cc(-c2nn(-c3cccc(NC(=O)c4ccc(N5CCOCC5)c(C(F)(F)F)c4)c3)cc2-c2ccncc2)c1 | 4 | > 100 | 38 | 4.07 | > 100 | 38 | 97 | 98 | 92 | 104 | 94 | 4.79 | > 100 | > 100 | 4.79 | > 100 | > 100 | 94 | –
COc1cc(Cl)cc(-c2nn(-c3cccc(NC(=O)Nc4ccc(Cl)c(C(F)(F)F)c4)c3)cc2-c2ccncc2)c1 | 1.14 | 3.52 | 43.8 | 1.15 | 38 | 4.37 | 95 | 83 | 81 | 87 | 98 | 0.77 | 4.48 | 40 | – | 44.7 | – | 95 | –
O=C(Nc1cccc(-n2cc(-c3ccncc3)c(-c3cc(O)cc(Cl)c3)n2)c1)c1cc(C(F)(F)F)cc(C(F)(F)F)c1 | 2.5 | > 100 | 37.7 | 2.51 | > 100 | 38 | 91 | 92 | 88 | 103 | 102 | 3.04 | > 100 | > 100 | 3.02 | > 100 | > 100 | 97 | –
